According to patent US8946266B2, “Substituted triazole and imidazole derivatives as gamma secretase modulators” (Janssen Pharmaceuticals, Inc., priority 2009, dated 2015):
Like-named read-outs stand apart in the source and are kept apart here.

Columns and labels:
Aβ42 = experiment: γ-secretase-modulating activity, Method 2: Aβ42 Alphalisa in supernatant of SKNBE2 cells carrying APP 695-wild type (Table 3b); type: cell-based; conditions: overnight
How it was run: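 SKNBE2 cells expressing wild-type APP695 were incubated overnight at 37° C. with test compound. Secreted Aβ42 was then measured by AlphaLISA, using a C-terminal Aβ42 antibody paired with an N-terminal Aβ antibody. IC50 came from a 4-parameter fit of percent of compound-free control.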

Aβtotal = experiment: γ-secretase-modulating activity, Method 2: Aβtotal Alphalisa in supernatant of SKNBE2 cells carrying APP 695-wild type (Table 3b); type: cell-based; conditions: overnight, read-out: IC50 Aβtot
How it was run: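 SKNBE2 cells expressing wild-type APP 695 were incubated overnight at 37 °C, 5% CO2 with test compound at a range of concentrations. Aβtotal in supernatant was measured by AlphaLISA sandwich (N-terminal JRF/AβN/25 acceptor, biotinylated mid-region 4G8 donor); IC50 from 4-parameter fit of percent control versus log concentration.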

SMILES	IC50 (Aβ42)	IC50 (Aβtotal)	IC50 (Aβ42; Homo sapiens)	IC50 (Aβtotal; Homo sapiens)
CCOc1ccccc1Nc1nc(-c2ccc(-n3cnc(C)c3)c(OC)c2)nn1C [Compound 205]	100 nM	> 10000 nM	–	–
Cc1cn(-c2ccc(-c3nc(Nc4cccc(C(F)(F)F)c4)n(C)n3)cc2)cn1 [Compound 206]	166 nM	8130 nM	–	–
Cc1cn(-c2ccc(-c3nc(Nc4cc(C(F)(F)F)ccc4F)n(C)n3)cc2)cn1 [Compound 207]	123 nM	> 10000 nM	–	–
COCCn1nc(-c2ccc(-n3cnc(C)c3)c(OC)c2)nc1Nc1cc(C(F)(F)F)ccc1F [Compound 209]	52 nM	9550 nM	–	–
COc1cc(F)ccc1Nc1nc(-c2ccc(-n3cnc(C)c3)c(OC)c2)nn1C [Compound 215]	269 nM	> 10000 nM	–	–
COc1cc(F)c(F)c(Nc2nc(-c3ccc(-n4cnc(C)c4)c(OC)c3)nn2C)c1 [Compound 216]	76 nM	> 10000 nM	–	–
COc1cc(-c2nc(Nc3cc(NC(C)=O)ccc3F)n(C)n2)ccc1-n1cnc(C)c1 [Compound 221]	708 nM	> 10000 nM	–	–
COc1cc(-c2nc(Nc3cccc(NC(C)=O)c3)n(C)n2)ccc1-n1cnc(C)c1 [Compound 222]	1150 nM	> 10000 nM	–	–
COc1cc(-c2nc(Nc3cc(C(C)=O)ccc3F)n(C)n2)ccc1-n1cnc(C)c1 [Compound 223]	–	–	126 nM	> 10000 nM
COc1cc(-c2nc(Nc3cccc(C#N)c3)n(C)n2)ccc1-n1cnc(C)c1 [Compound 224]	646 nM	> 10000 nM	–	–
COc1cc(-c2nc(Nc3ccc(C#N)cc3)n(C)n2)ccc1-n1cnc(C)c1 [Compound 225]	1440 nM	> 10000 nM	–	–
COc1cc(-c2nc(Nc3cc(C#N)ccc3F)n(C)n2)ccc1-n1cnc(C)c1 [Compound 226]	417 nM	> 10000 nM	–	–
COc1cc(-c2nc(Nc3ccc(C#N)cc3F)n(C)n2)ccc1-n1cnc(C)c1 [Compound 227]	676 nM	891 nM	–	–
COc1cc(-c2nc(Nc3ccc(F)cc3C#N)n(C)n2)ccc1-n1cnc(C)c1 [Compound 228]	4470 nM	> 10000 nM	–	–
COc1cc(-c2nc(Nc3ccc4c(c3)OC(F)(F)O4)n(C)n2)ccc1-n1cnc(C)c1 [Compound 231]	56 nM	5890 nM	–	–
COc1cc(-c2nc(N(C(C)=O)c3cc(F)c(F)cc3I)n(C)n2)ccc1-n1cnc(C)c1 [Compound 232]	–	–	1410 nM	> 10000 nM
COc1cc(-c2nc(Nc3ccnc(Cl)c3)n(C)n2)ccc1-n1cnc(C)c1 [Compound 234]	955 nM	> 10000 nM	–	–

The remaining lines, values ahead:

IC50 (Aβ42)	IC50 (Aβtotal)	IC50 (Aβ42; Homo sapiens)	IC50 (Aβtotal; Homo sapiens)	SMILES
178 nM	> 10000 nM	–	–	COc1cc(-c2nc(Nc3c(F)cccc3C(F)(F)F)n(C)n2)ccc1-n1cnc(C)c1 [Compound 208]
35 nM	> 10000 nM	–	–	COc1cc(-c2nc(Nc3cc(C(F)(F)F)cc(Cl)c3F)n(C)n2)ccc1-n1cnc(C)c1 [Compound 210]
17 nM	> 10000 nM	–	–	COc1cc(-c2nc(Nc3cc(C(F)(F)F)c(Cl)cc3F)n(C)n2)ccc1-n1cnc(C)c1 [Compound 212]
14 nM	> 10000 nM	–	–	COc1ccc(C(F)(F)F)c(Nc2nc(-c3ccc(-n4cnc(C)c4)c(OC)c3)nn2C)c1 [Compound 218]
91 nM	> 10000 nM	–	–	COc1cc(-c2nc(Nc3cccc(F)c3OC)n(C)n2)ccc1-n1cnc(C)c1 [Compound 219]
63 nM	> 10000 nM	–	–	COc1cc(F)c(C(F)(F)F)cc1Nc1nc(-c2ccc(-n3cnc(C)c3)c(OC)c2)nn1C [Compound 220]
295 nM	> 10000 nM	–	–	COc1cc(-c2nc(Nc3cccc(C#N)c3F)n(C)n2)ccc1-n1cnc(C)c1 [Compound 229]
302 nM	> 10000 nM	–	–	COc1cc(-c2nc(Nc3ccc(C#N)cc3C(F)(F)F)n(C)n2)ccc1-n1cnc(C)c1 [Compound 230]
603 nM	> 10000 nM	–	–	COc1cc(-c2nc(Nc3cccnc3C(F)(F)F)n(C)n2)ccc1-n1cnc(C)c1 [Compound 233]
